Measurements from PMC5951806, “Rapid labelling and covalent inhibition of intracellular native proteins using ligand-directed N-acyl-N-alkyl sulfonamide” (Nature Communications, 2018).
Several values for one entry are separate records, joined by “and”; a condition that tells them apart may be missing. Equal entries are not always repeated.

Columns and labels:
Test in all cases: TMT LC-MSMS of 11-labelled proteins
Type in all cases: cell-based
[1] = target: Heat shock protein HSP 90-beta (HSP90AB1) (Homo sapiens, UniProt P08238)
Sequence of Heat shock protein HSP 90-beta (HSP90AB1) (P08238 whole entry): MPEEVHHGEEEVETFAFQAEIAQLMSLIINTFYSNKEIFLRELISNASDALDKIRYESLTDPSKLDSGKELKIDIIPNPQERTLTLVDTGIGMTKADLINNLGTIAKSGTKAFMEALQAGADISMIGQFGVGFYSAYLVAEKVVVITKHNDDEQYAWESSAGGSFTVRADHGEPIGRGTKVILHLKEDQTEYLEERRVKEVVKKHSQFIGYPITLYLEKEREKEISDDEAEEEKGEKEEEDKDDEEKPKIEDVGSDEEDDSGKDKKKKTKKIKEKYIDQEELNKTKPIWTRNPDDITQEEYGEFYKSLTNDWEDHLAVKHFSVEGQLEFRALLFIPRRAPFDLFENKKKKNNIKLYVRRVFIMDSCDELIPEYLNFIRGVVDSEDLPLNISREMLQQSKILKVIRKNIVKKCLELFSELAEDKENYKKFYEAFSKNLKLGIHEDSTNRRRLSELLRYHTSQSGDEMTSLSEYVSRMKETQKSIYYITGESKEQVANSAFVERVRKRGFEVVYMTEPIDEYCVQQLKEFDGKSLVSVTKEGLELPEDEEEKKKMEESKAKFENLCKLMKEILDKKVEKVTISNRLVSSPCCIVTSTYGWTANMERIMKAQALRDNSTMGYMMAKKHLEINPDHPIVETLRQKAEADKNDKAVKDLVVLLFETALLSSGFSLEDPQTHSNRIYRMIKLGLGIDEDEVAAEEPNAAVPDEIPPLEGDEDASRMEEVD

[2] = target: T1, dehydrogenase/reductase SDR family member 2, mitochondrial (DHRS2) (Homo sapiens, UniProt Q13268)
T1 sequence (Q13268 24-280): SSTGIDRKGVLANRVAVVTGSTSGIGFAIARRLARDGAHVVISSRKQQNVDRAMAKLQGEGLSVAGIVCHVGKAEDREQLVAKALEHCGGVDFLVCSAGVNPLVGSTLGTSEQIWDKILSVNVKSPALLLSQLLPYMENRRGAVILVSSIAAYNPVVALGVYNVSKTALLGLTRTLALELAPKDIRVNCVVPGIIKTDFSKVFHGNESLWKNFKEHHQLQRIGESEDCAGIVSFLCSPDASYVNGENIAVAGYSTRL

[3] = target: Pyruvate kinase PKM (PKM) (Homo sapiens, UniProt P14618)
Sequence of Pyruvate kinase PKM (PKM) (P14618 whole entry): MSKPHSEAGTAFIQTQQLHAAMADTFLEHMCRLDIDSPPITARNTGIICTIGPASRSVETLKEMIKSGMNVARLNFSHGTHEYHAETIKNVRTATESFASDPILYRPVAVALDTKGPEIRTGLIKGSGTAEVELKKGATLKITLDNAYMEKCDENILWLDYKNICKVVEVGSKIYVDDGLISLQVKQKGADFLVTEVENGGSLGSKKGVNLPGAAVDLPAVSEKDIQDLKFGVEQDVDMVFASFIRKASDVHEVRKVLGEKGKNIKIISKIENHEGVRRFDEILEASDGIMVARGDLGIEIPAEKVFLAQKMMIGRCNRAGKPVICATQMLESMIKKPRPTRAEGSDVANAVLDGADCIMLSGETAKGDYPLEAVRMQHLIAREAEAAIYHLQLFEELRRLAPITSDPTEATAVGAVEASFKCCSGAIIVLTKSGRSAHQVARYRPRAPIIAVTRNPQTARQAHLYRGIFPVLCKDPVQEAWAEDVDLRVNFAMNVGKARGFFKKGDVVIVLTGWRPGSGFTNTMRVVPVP

[4] = target: Heat shock cognate 71 kDa protein (HSPA8) (Homo sapiens, UniProt P11142)
Sequence of Heat shock cognate 71 kDa protein (HSPA8) (P11142 whole entry): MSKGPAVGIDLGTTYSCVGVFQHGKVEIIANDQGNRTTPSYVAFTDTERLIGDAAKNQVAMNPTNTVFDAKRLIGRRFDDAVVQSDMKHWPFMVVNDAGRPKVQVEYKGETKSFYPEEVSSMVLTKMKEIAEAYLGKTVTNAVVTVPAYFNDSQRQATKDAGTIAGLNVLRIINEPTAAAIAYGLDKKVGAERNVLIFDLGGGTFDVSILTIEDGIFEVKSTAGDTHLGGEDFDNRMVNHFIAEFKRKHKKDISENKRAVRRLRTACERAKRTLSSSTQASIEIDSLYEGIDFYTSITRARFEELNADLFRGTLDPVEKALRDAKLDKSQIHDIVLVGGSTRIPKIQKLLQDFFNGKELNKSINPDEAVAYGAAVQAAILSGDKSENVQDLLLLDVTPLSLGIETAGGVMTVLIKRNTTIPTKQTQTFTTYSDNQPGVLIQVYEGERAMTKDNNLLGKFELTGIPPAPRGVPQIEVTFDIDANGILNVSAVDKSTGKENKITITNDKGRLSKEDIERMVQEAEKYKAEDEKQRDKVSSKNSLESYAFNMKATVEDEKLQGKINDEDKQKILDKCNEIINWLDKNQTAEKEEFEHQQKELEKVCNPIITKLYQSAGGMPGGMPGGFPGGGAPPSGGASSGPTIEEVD

[5] = sheet Exp1, SKBR3 cells, 11 0.5 µM 3 h vs DMSO
[6] = sheet Exp1, SKBR3 cells, 11 0.5 µM 3 h vs with PU-H71 10 µM
[7] = sheet Merged, SKBR3 cells, 11 0.5 µM 3 h vs DMSO
[8] = sheet Merged, SKBR3 cells, 11 0.5 µM 3 h vs with PU-H71 10 µM

Question: Which “Abundance Ratio: (11) / (11 with PU-H71)” value ([1]; Exp3, HSP90AB1) does the source give for `CC(=O)Oc1ccc2c(c1)Oc1cc(OC(C)=O)ccc1C21OC(=O)c2cc(C(=O)NCCOCCOCCNC(=O)CCCC(=O)N(CC#N)S(=O)(=O)c3ccc(C(=O)NCCCn4c(Sc5cc6c(cc5I)OCO6)nc5c(N)ncnc54)cc3)ccc21` [compound 11] here?
Answer: The value was 3.363.

Question: And the “Abundance Ratio: (11) / (DMSO)” value ([1]; Exp3, HSP90AB1)?
Answer: Its value is 10.531.

Question: What about the “Abundances (Grouped): 11” value ([1]; Exp3, HSP90AB1) of the same compound?
Answer: The value was 3418.4.

Question: And the “Abundances (Grouped): 11 with PU-H71” value ([1]; Exp3, HSP90AB1)?
Answer: The value was 1016.5.

Question: What about the “Abundance Ratio: (11) / (DMSO)” value [1, 5] of the same compound?
Answer: The value was 8.2.

Question: What about the “Abundance Ratio: (11) / (11 with PU-H71)” value [1, 6] of the same compound?
Answer: Its value is 3.253.

Question: And the “Abundance Ratio: (11) / (11 with PU-H71)” value ([1]; sheet Exp2, HSP90AB1)?
Answer: Its value is 3.262.

Question: And the “Abundance Ratio: (11) / (DMSO)” value ([1]; sheet Exp2, HSP90AB1)?
Answer: The value was 9.509.

Question: And the “Abundances (Grouped): 11” value ([1]; sheet Exp2, HSP90AB1)?
Answer: The value was 4464.4.

Question: What about the “Abundances (Grouped): 11 with PU-H71” value ([1]; sheet Exp2, HSP90AB1) of the same compound?
Answer: The value was 1368.7.

Question: And the “Abundance Ratio: (11) / (DMSO)” value [1, 7]?
Answer: The value was 9.3 and 9.344.

Question: What about the “Abundance Ratio: (11) / (11 with PU-H71)” value [1, 8] of the same compound?
Answer: Its value is 3.227.

Question: And the “Abundance Ratio: (11) / (11 with PU-H71)” value ([2]; Exp3, DHRS2)?
Answer: The value was 0.644.

Question: What about the “Abundance Ratio: (11) / (DMSO)” value ([2]; Exp3, DHRS2) of the same compound?
Answer: Its value is 2.859.

Question: What about the “Abundances (Grouped): 11” value ([2]; Exp3, DHRS2) of the same compound?
Answer: The value was 223.6.

Question: What about the “Abundances (Grouped): 11 with PU-H71” value ([2]; Exp3, DHRS2) of the same compound?
Answer: The value was 347.1.

Question: What about the “Abundance Ratio: (11) / (DMSO)” value [2, 5] of the same compound?
Answer: The value was 3.162.

Question: What about the “Abundance Ratio: (11) / (11 with PU-H71)” value [2, 6] of the same compound?
Answer: Its value is 0.783.

Question: And the “Abundance Ratio: (11) / (11 with PU-H71)” value ([2]; sheet Exp2, DHRS2)?
Answer: Its value is 0.6.

Question: And the “Abundance Ratio: (11) / (DMSO)” value ([2]; sheet Exp2, DHRS2)?
Answer: Its value is 3.132.

Question: What about the “Abundances (Grouped): 11” value ([2]; sheet Exp2, DHRS2) of the same compound?
Answer: The value was 156.3.

Question: And the “Abundances (Grouped): 11 with PU-H71” value ([2]; sheet Exp2, DHRS2)?
Answer: The value was 260.6.

Question: What about the “Abundance Ratio: (11) / (DMSO)” value [2, 7] of the same compound?
Answer: Its value is 2.859.

Question: What about the “Abundance Ratio: (11) / (11 with PU-H71)” value [2, 8] of the same compound?
Answer: The value was 0.644.

Question: What about the “Abundance Ratio: (11) / (11 with PU-H71)” value ([3]; Exp3, PKM) of the same compound?
Answer: The value was 1.148.

Question: What about the “Abundance Ratio: (11) / (DMSO)” value ([3]; Exp3, PKM) of the same compound?
Answer: Its value is 2.441.

Question: What about the “Abundances (Grouped): 11” value ([3]; Exp3, PKM) of the same compound?
Answer: The value was 100.1.

Question: What about the “Abundances (Grouped): 11 with PU-H71” value ([3]; Exp3, PKM) of the same compound?
Answer: The value was 87.2.

Question: And the “Abundance Ratio: (11) / (DMSO)” value [3, 5]?
Answer: The value was 3.506.

Question: And the “Abundance Ratio: (11) / (11 with PU-H71)” value [3, 6]?
Answer: The value was 0.917.

Question: What about the “Abundance Ratio: (11) / (11 with PU-H71)” value ([3]; sheet Exp2, PKM) of the same compound?
Answer: Its value is 0.916.

Question: What about the “Abundance Ratio: (11) / (DMSO)” value ([3]; sheet Exp2, PKM) of the same compound?
Answer: Its value is 2.005.

Question: What about the “Abundances (Grouped): 11” value ([3]; sheet Exp2, PKM) of the same compound?
Answer: The value was 121.5.

Question: What about the “Abundances (Grouped): 11 with PU-H71” value ([3]; sheet Exp2, PKM) of the same compound?
Answer: Its value is 132.6.

Question: What about the “Abundance Ratio: (11) / (DMSO)” value [3, 7] of the same compound?
Answer: The value was 3.4.

Question: And the “Abundance Ratio: (11) / (11 with PU-H71)” value [3, 8]?
Answer: Its value is 0.922.

Question: What about the “Abundance Ratio: (11) / (11 with PU-H71)” value ([4]; Exp3, HSPA8) of the same compound?
Answer: Its value is 1.213.

Question: And the “Abundance Ratio: (11) / (DMSO)” value ([4]; Exp3, HSPA8)?
Answer: Its value is 3.219.

Question: And the “Abundances (Grouped): 11” value ([4]; Exp3, HSPA8)?
Answer: The value was 407.2.

Question: And the “Abundances (Grouped): 11 with PU-H71” value ([4]; Exp3, HSPA8)?
Answer: The value was 335.6.

Question: And the “Abundance Ratio: (11) / (DMSO)” value [4, 5]?
Answer: The value was 3.395.

Question: And the “Abundance Ratio: (11) / (11 with PU-H71)” value [4, 6]?
Answer: The value was 1.175.

Question: And the “Abundance Ratio: (11) / (11 with PU-H71)” value ([4]; sheet Exp2, HSPA8)?
Answer: The value was 1.256.

Question: And the “Abundance Ratio: (11) / (DMSO)” value ([4]; sheet Exp2, HSPA8)?
Answer: The value was 4.511.

Question: And the “Abundances (Grouped): 11” value ([4]; sheet Exp2, HSPA8)?
Answer: The value was 471.4.

Question: What about the “Abundances (Grouped): 11 with PU-H71” value ([4]; sheet Exp2, HSPA8) of the same compound?
Answer: The value was 375.4.

Question: What about the “Abundance Ratio: (11) / (DMSO)” value [4, 7] of the same compound?
Answer: Its value is 3.381.

Question: What about the “Abundance Ratio: (11) / (11 with PU-H71)” value [4, 8] of the same compound?
Answer: The value was 1.191.
